The source of these data is ChEMBL document CHEMBL1130842, “Synthesis and in vitro cytotoxicity of lipophilic platinum(II) complexes” (Bioorg Med Chem Lett, 1998).

Molecules are shown by their SMILES. Converted amounts (≈) assume the structure as drawn.

What all share (assay type): functional, cell-based
One assay concerns Lung NSCLC-N6 cell-line. Nature of the assay: Cytotoxicity was evaluated against lung NSCLC-N6 cell-line by MTT assay. The note with it: Homo sapiens. (Tetrazolium dyes change colour on reduction, which living cells bring about.)
The subject of a further assay is M96. Nature of the assay: Cytotoxicity was evaluated against melanoma M96 cell-line by MTT assay. The settings on record: Homo sapiens.
The next assay concerns P388. Put plainly: Cytotoxicity was evaluated against leukemia P388 cell-line by MTT assay. The settings on record: Mus musculus.
For another assay, the system named is E39. Put plainly: Cytotoxicity was evaluated against renal E39 cell-line by MTT assay. The settings on record: Homo sapiens.

A word on the IC50: it is the concentration that inhibits the measured activity by half. Low readings indicate higher potency, high ones lower potency. For the molecule `CCCCCCCCCCCCCCC(N)CN` (centres undefined), the IC50 with Lung NSCLC-N6 cell-line was determined as 1.1 mg/L (≈ 4.29 µM); in the assay with M96, 7.8 mg/L (≈ 30.4 µM); with P388, 0.1 mg/L (≈ 0.39 µM); in the assay with E39, 5.3 mg/L (≈ 20.7 µM).
